Source: patent US20240174690A1, “ANNULATED 2-AMINO-3-CYANO THIOPHENES AND DERIVATIVES FOR THE TREATMENT OF CANCER” (BOEHRINGER INGELHEIM INTERNATIONAL GMBH, priority 2021, published 2024)
Converted amounts (≈) assume the structure as drawn. Like-named read-outs stand apart in the source and are kept apart here.

Columns and labels:
[1] = Solubility measurement (DMSO solution method), McIlvaine buffer pH 4.5 or 6.8; format: physicochemical; conditions: aqueous buffer, kinetic from dmso stock, DMSO stock diluted to 250 μM, 24 h shaking at ambient temperature
Method in brief: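 Filtrate concentration by LC-UV, calibrated to a known-concentration reference dissolved completely in acetonitrile/water (1:1). Samples came from 250 µM final dilutions of DMSO stock in pH 4.5 or 6.8 McIlvaine buffer, shaken 24 h at ambient temperature, then filtered.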

[2] = Plasma protein binding assay (PPB), equilibrium dialysis, 10% FCS in PBS; format: in vitro ADME; conditions: bovine, read-out: PPB 10% FCS (% fu)
Method in brief: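 Test compound (1-10 μmol/L) in 10% FCS in PBS was dialysed for 3-5 h at 37° C versus PBS ± dextran across a semipermeable membrane. LC-MS of both compartments after protein precipitation gave Cserum and Cbuffer, from which the unbound fraction fu was derived.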

SK-CO-1 cells = test: SK-CO-1 CTG proliferation assay (120 h) (CRC, G12V); format: cell-based; conditions: Homo sapiens; SK-CO-1 cells (CRC, G12V), CTG 120 h
Method in brief: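 Compound exposure lasted 120 h in KRAS G12V SK-CO-1 cells seeded overnight at 500 cells/well in 10% FCS EMEM. CellTiter-Glo RLU normalised to DMSO wells gave percent viability, and a four-parameter model fit yielded IC50.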

SAS cells = test: SAS CTG proliferation assay (120 h) (HNSCC, wt amplified); format: cell-based
Method in brief: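 Viability measured by CellTiter-Glo luminescence, normalized to DMSO wells, after 120 h compound treatment of SAS cells. Cells grown in DMEM:F12 plus 10% FCS at 300 cells per well, dosed the day after seeding. Four-parameter fit gives IC50.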

NCI-H2122 cells = test: NCI-H2122 CTG proliferation assay (120 h) (NSCLC, G12C); format: cell-based; conditions: Homo sapiens
Method in brief: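 Proliferation was read by CellTiter-Glo luminescence after 120 h of compound exposure, starting one day after seeding 200 NCI-H2122 (G12C) cells per well in RPMI/10% FCS. RLU relative to DMSO wells gave percent viability, and four-parameter nonlinear regression gave IC50.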

AsPC-1 cells = test: AsPC-1 CTG proliferation assay (120 h) (pancreatic cancer, G12D); format: cell-based; conditions: Homo sapiens, ASPC1
Method in brief: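 CellTiter-Glo luminescence, normalised to DMSO wells, measured viability after 120 h compound exposure. Cells were AsPC-1 pancreatic cancer (G12D) plated at 2000 per well in RPMI/10% FCS the day before dosing. IC50 derived by four-parameter regression.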

[3] = McIlvaine buffer pH 4.5, read-out: solubility pH 4.5
[4] = McIlvaine buffer pH 6.8, read-out: solubility pH 6.8

SMILES	solubility at 24 h [1, 3]	solubility at 24 h [1, 4]	fraction unbound [2]	IC50 (SK-CO-1 cells)	IC50 (SAS cells)	IC50 (NCI-H2122 cells)	IC50 (AsPC-1 cells)
C[C@H](Oc1nc(-c2onc3c2CCC[C@@]32CCCc3sc(N)c(C#N)c32)cc(N2CCNC3(CC3)C2)n1)[C@@H]1CCCN1C [I-2]	> 142 µg/mL	> 131 µg/mL	0.69				
C[C@H](Oc1cc(N2CCNC3(COC3)C2)nc(-c2onc3c2CCC[C@@]32CCCc3sc(N)c(C#N)c32)n1)[C@@H]1CCCN1C [I-4]	> 148 µg/mL	> 140 µg/mL		541 nM	395 nM	3750 nM	64 nM
C[C@H](Oc1cc(-c2ccn(CC(C)(C)O)n2)nc(-c2onc3c2CCC[C@@]32CCCc3sc(N)c(C#N)c32)n1)[C@@H]1CCCN1C [I-26]			0.23	118 nM	89 nM	1070 nM	2240 nM
C[C@H](O)Cn1ccc(-c2cc(O[C@@H](C)[C@@H]3CCCN3C)nc(-c3onc4c3CCC[C@@]43CCCc4sc(N)c(C#N)c43)n2)n1 [I-31]	> 128 µg/mL	118 µg/mL (≈ 192 µM)	0.53		57 nM		
C[C@H](Oc1cc(N2CCN(C)C3(COC3)C2)nc(-c2onc3c2CCC[C@@]32CCCc3sc(N)c(C#N)c32)n1)[C@@H]1C[C@@H](F)CN1C [I-37]	> 149 µg/mL	17 µg/mL (≈ 26.2 µM)	0.26	1080 nM	412 nM		609 nM
C[C@H](Oc1cc(N2CCN(C)C3(CC3)C2)nc(-c2onc3c2CCC[C@@]32CCCc3sc(N)c(C#N)c32)n1)[C@@H]1C[C@@H](F)CN1C [I-39]	> 147 µg/mL	< 1 µg/mL	0.07	2070 nM	1200 nM		149 nM
C[C@H](Oc1nc(-c2onc3c2CCC[C@@]32CCCc3sc(N)c(C#N)c32)cc(N2CCN(C)C3(CC3)C2)n1)[C@@H]1CCCN1C [I-40]			0.51				
C[C@H](Oc1cc(N2CCN(C)C3(CC3)C2)nc(-c2onc3c2CCC[C@@]32CCCc3sc(N)c(C#N)c32)n1)[C@@H]1CCCN1C [I-41]	> 137 µg/mL	118 µg/mL (≈ 192 µM)		2760 nM	4190 nM	3560 nM	297 nM
C[C@H]1CN(C)CCCN1c1nc(-c2onc3c2CCC[C@@]32CCCc3sc(N)c(C#N)c32)cc(N2CCN(C)C3(CC3)C2)n1 [I-42]	> 141 µg/mL	99 µg/mL (≈ 161 µM)					
C[C@H](Oc1cc(N2CCN(C)C3(CCC3)C2)nc(-c2onc3c2CCC[C@@]32CCCc3sc(N)c(C#N)c32)n1)[C@@H]1CCCN1C [I-44]			0.22	1210 nM	1200 nM	1270 nM	980 nM
C[C@H](Oc1cc(N2CCNC3(CC3)C2)nc(-c2onc3c2CCC[C@@]32CCCc3sc(N)c(C#N)c32)n1)[C@@H]1C[C@@H](F)CN1C [I-45]	> 148 µg/mL	> 86 µg/mL	0.14	763 nM	1190 nM		32 nM
CO[C@H]1CCN(C)[C@@H]1[C@H](C)Oc1cc(-n2ccc(CC(=O)NC(C)C)n2)nc(-c2onc3c2CCC[C@@]32CCCc3sc(N)c(C#N)c32)n1 [I-48]	> 161 µg/mL	7 µg/mL (≈ 10.2 µM)	0.12	14 nM	13 nM		384 nM
CO[C@H]1CCN(C)[C@@H]1[C@H](C)Oc1cc(N2CCNC3(CC3)C2)nc(-c2onc3c2CCC[C@@]32CCCc3sc(N)c(C#N)c32)n1 [I-49]	> 154 µg/mL	43 µg/mL (≈ 68.2 µM)	0.15	515 nM	905 nM		20 nM
CO[C@@H]1C[C@@H]([C@H](C)Oc2cc(N3CCN(C)C4(CC4)C3)nc(-c3onc4c3CCC[C@@]43CCCc4sc(N)c(C#N)c43)n2)N(C)C1 [I-50]	> 139 µg/mL	95 µg/mL (≈ 147 µM)	0.14	2050 nM	2900 nM		115 nM
CO[C@H]1CCN(C)[C@@H]1[C@H](C)Oc1cc(-n2ccc(C(=O)N[C@@H]3CCOC3)n2)nc(-c2onc3c2CCC[C@@]32CCCc3sc(N)c(C#N)c32)n1 [I-53]	> 152 µg/mL	5 µg/mL (≈ 7.14 µM)	0.05	7 nM	13 nM		414 nM
CO[C@H]1CCN(C)[C@@H]1[C@H](C)Oc1cc(-n2ccc(C(=O)N[C@H]3CCOC3)n2)nc(-c2onc3c2CCC[C@@]32CCCc3sc(N)c(C#N)c32)n1 [I-54]	16 µg/mL (≈ 22.9 µM)	< 1 µg/mL	0.09	7 nM	17 nM		266 nM
COCCNC(=O)c1ccn(-c2cc(O[C@@H](C)[C@@H]3[C@@H](OC)CCN3C)nc(-c3onc4c3CCC[C@@]43CCCc4sc(N)c(C#N)c43)n2)n1 [I-55]	> 162 µg/mL	5 µg/mL (≈ 7.27 µM)	0.06	9 nM	10 nM		565 nM
C[C@H](Oc1cc(-n2ccc(C(=O)N[C@@H]3CCOC3)n2)nc(-c2onc3c2CCC[C@@]32CCCc3sc(N)c(C#N)c32)n1)[C@@H]1CCCN1C [I-56]	108 µg/mL (≈ 161 µM)	97 µg/mL (≈ 145 µM)	0.32	8 nM	25 nM		695 nM
C[C@H](Oc1cc(-n2ccc(C(=O)N[C@H]3CCOC3)n2)nc(-c2onc3c2CCC[C@@]32CCCc3sc(N)c(C#N)c32)n1)[C@@H]1CCCN1C [I-57]				4 nM			278 nM
COCCNC(=O)c1ccn(-c2cc(O[C@@H](C)[C@@H]3CCCN3C)nc(-c3onc4c3CCC[C@@]43CCCc4sc(N)c(C#N)c43)n2)n1 [I-58]	> 128 µg/mL	94 µg/mL (≈ 143 µM)	0.28	14 nM	45 nM		696 nM
C[C@H](NC(=O)c1ccn(-c2cc(O[C@@H](C)[C@@H]3CCCN3C)nc(-c3onc4c3CCC[C@@]43CCCc4sc(N)c(C#N)c43)n2)n1)c1ccccn1 [I-59]	> 150 µg/mL	15 µg/mL (≈ 21.3 µM)	0.04	5 nM	15 nM		444 nM
C[C@H](Oc1cc(-n2ccc(C(=O)N(C)C3COC3)n2)nc(-c2onc3c2CCC[C@@]32CCCc3sc(N)c(C#N)c32)n1)[C@@H]1CCCN1C [I-60]	> 158 µg/mL	> 161 µg/mL	0.1	21 nM	40 nM		779 nM
C[C@@H]1CN(c2cc(O[C@@H](C)[C@@H]3C[C@@H](F)CN3C)nc(-c3noc4c3CCC[C@@]43CCCc4sc(N)c(C#N)c43)n2)CC2(CC2)N1 [II-17]	> 147 µg/mL	20 µg/mL (≈ 31.6 µM)	0.09	617 nM	1030 nM		251 nM
C[C@H](Oc1cc(N2C[C@H](C)NC3(CC3)C2)nc(-c2noc3c2CCC[C@@]32CCCc3sc(N)c(C#N)c32)n1)[C@@H]1C[C@@H](F)CN1C [II-18]	> 146 µg/mL	8 µg/mL (≈ 12.6 µM)	0.11	444 nM	293 nM		45 nM
C[C@H](Oc1cc(N2C[C@H]3CN(C)C[C@H]3C2)nc(-c2noc3c2CCC[C@@]32CCCc3sc(N)c(C#N)c32)n1)[C@@H]1CCCN1C [II-33]			0.68	1050 nM	597 nM	4120 nM	1410 nM
C[C@H](Oc1nc(-c2noc3c2CCC[C@@]32CCCc3sc(N)c(C#N)c32)cc(N2C[C@H](C)N[C@@H](C)C2)n1)[C@@H]1CCCN1C [II-46]	> 150 µg/mL	> 150 µg/mL		655 nM	399 nM	900 nM	2740 nM
[2H]C([2H])([2H])N1C[C@H](F)C[C@H]1[C@H](C)Oc1cc(N2CCNC3(CC3)C2)nc(-c2noc3c2CCC[C@@]32CCCc3sc(N)c(C#N)c32)n1 [II-208]			0.15	398 nM	718 nM		15 nM
[2H]C([2H])([2H])N1C[C@H](F)C[C@H]1[C@H](C)Oc1cc(N2CCN(C)C3(CC3)C2)nc(-c2noc3c2CCC[C@@]32CCCc3sc(N)c(C#N)c32)n1 [II-209]	> 150 µg/mL	< 1 µg/mL	0.06	1390 nM	737 nM		59 nM
